Results as given in article PMC10470313, “Developing a peptide to disrupt cohesin head domain interactions” (iScience, 2023).
“And” between values parts separate entries of the source, which are not always exact repeats. Equal entries are not always repeated. “Also recorded” adds a separate entry of the source.

T1: CIP3-TAT (S. cerevisiae | HIV)
T1 construct: Smc1, S. cerevisiae, residues 1121-1135 (conserved region of the head domain); linker between the Smc1 stretch and the TAT stretch; 11-amino acid peptide from the HIV TAT protein, added for delivery into cells; The methods of the biosensing experiment call the immobilised peptide CIP3; also called TAT-CIP3; source: synthetic peptide (Fmoc solid-phase synthesis, purified by preparative RP-HPLC)
T1 peptide: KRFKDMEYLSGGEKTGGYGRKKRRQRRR


Legend:
[1] = test system: yIO-001 strain yeast cells; experiment: Peptide entry into yeast cells (epifluorescence microscopy); type: cell-based; conditions: 10 mM peptide, 1 h, 30°C, mid-log phase, FITC epifluorescence
Protocol: The formation of Smc3/CIP3 complexes supports our preliminary conclusion that CIP3 inhibits cohesin activity in cells. Aiming to improve the stability of the peptide in cells, we switched to using an in vitro synthesized peptide. This approach has been successfully used to inhibit protein-protein interactions in both yeast and mammalian cells.[26]^,[38]^,[39]^,[40]^,[41] […] We validated peptide entry into yeast by incubating a 26-amino acid control peptide (ContP), which was fused to the TAT, and a fluorescein isothiocyanate (FITC) fluorophore. Thereafter, 10 mM of the ContP was added to yIO-001 strain cells grown to mid-log phase at 30°C. The cells were incubated with the peptide for 1 h and analyzed by epifluorescence microscopy.
Supplementary Figure S3. Binding of CIP3-TAT to cohesin by microscale thermophoresis, Related to Figure 3. 10 µM CIP3-TAT was added to protein extracts from strain yAM-945 (Smc3-GFP). The formation of the CIP3-TAT and cohesin complex was analyzed by MST in binding mode. A. MST trace. B. Binding analysis.
Supplementary Figure S4. […]
3. […] The purified proteins were analyzed on gel, followed by coomassie staining. […]
Supplementary Figure S5. […] The entry of the peptide into the cells was analyzed by epifluorescence microscopy.
Supplementary Figure S6. […] The cell cycle stage of the cells, described in Fig. 4B, was determined by flow cytometry. […]

[2] = test system: yeast cells (pGAL-CIP strains); experiment: Yeast growth rate with galactose-induced peptide expression (OD600); type: cell-based, Saccharomyces cerevisiae; conditions: OD 600 nm every 120 min; for growth of cells overexpressing the peptide: SC-URA galactose medium, compared with control plasmid; for growth rate vs control, multiple linear regression coefficient B: logarithmic phase, galactose medium, representative experiment, vs control strain yIO1000
Description: We designed three cohesin-inhibiting peptides (CIPs, Table 1) to inhibit Smc1/Smc3 protein-protein interaction. CIP1 and CIP2 were derived from conserved regions in Smc3, while CIP3 was derived from a conserved region in Smc1 (Figure 1E). To explore the biological effect of the peptides on cohesin, we sought to overexpress them in cells. For that purpose, we constructed a centromeric plasmid—pME4 (CIP1), pME2 (CIP2), and pME3 (CIP3), in which the peptide coding sequence was inserted after an ATG codon and under the control of a GAL promoter. Cells were transformed with the plasmids and grown in an SC-URA medium. In addition, we transformed cells with a control plasmid (pIO014).
(§1) Strains yIO1000 (control) and yME-031 (pGAL-CIP1), yME-016 (pGAL-CIP2), and yME-019 (pGAL-CIP3) cells were diluted in SC-URA galactose medium, and their growth rate was measured by optical density at 600 nm every 120 min. Cohesin is essential for cell division, so we expected that inhibition of cohesin activity by expressing a CIP would affect the cell growth rate.
Figure 2 CIP3 causes cell growth delay Strains yIO1000 (control) and yME-031 (pGAL-CIP1), yME-016 (pGAL-CIP2), and yME-019 (pGAL-CIP3) cells were grown in a galactose-containing medium to induce peptide expression. Cell growth was monitored every 120 min to measure the optical density of the culture at 600 nm. The growth rate in the logarithmic growth phase was calculated. The results of a representative experiment are shown.

cohesin in yeast cells = experiment: Preliminary analysis of biological effect; type: cell-based
Protocol: as §1
The CIP3 sequence is derived from the C-terminal region of Smc1. The 15 amino acid sequence is conserved, encoding part of a short loop and the beginning of an alpha helix located at the bottom of the head domain (Figures 1A–1C). […] We used the HPepDock 2.0 server[32]^,[33]^,[34]^,[35] to predict the docking site of CIP3 on Smc3. The coordinates of the Smc3 structure (PDB: 4ux3)[36] were entered as the receptor input and CIP3 as the sequence as the peptide input and the analysis was done using the default parameter. […] CIP3 may interfere with ATP binding to the Walker A site in Smc3. Alternatively, it may misplace the hydrolysis motif in Smc1 and inhibit that ATPase activity. It is important to note that dynamics models are required to understand the structural basis of the Smc3-CIP3 complex fully, as well as experimental validation of the model.

yeast cells = experiment: Yeast growth with CIP3 expressed from T2A ribosome-skipping vector; type: cell-based, Saccharomyces cerevisiae; conditions: CIP3 followed by GFP in T2A vector, GAL promoter
Description: The weak effect of CIP3 expressed in cells may relate to several reasons, including low expression levels, low translation efficiency, or cellular instability of short mRNAs and peptides. We tried to increase cellular mRNA stability by using a plasmid containing the T2A ribosome-skipping sequence under GAL promoter control.[29]^,[30]^,[31] Two genes cloned in tandem and separated by a T2A linker were expressed as a single mRNA. The ribosome skips the T2A sequence during translation, resulting in two separate proteins (Figure S1A. Peptide expression from a plasmid containing T2A ribosome-skipping sequence, related to Figure 2). To test the system, we cloned green fluorescent protein (GFP) and mCherry in tandem, separated by the T2A sequence. Cells carrying the plasmids were grown in SC-URA with either noninducing raffinose or inducing galactose. […] Both GFP and mCherry proteins were detected by western blot analysis of extracts from these cells (Figure S1C. Peptide expression from a plasmid containing T2A ribosome-skipping sequence, related to Figure 2). […]

cohesin holocomplex = experiment: ATPase assay of cohesin holocomplex (free Pi); type: biochemical, S. cerevisiae; conditions: 10 nM cohesin, 20 nM loader, dsDNA, 0.25 mM ATP, 20 mM TAT-CIP3 as printed, 30°C, absorbance 650 nm
Protocol: The formation of the Smc3-CIP3 complex likely affects the ATPase activity. To explore this possibility, we expressed and purified S. cerevisiae cohesin holocomplex and the loader from yeast cells[37] (Figure S4. Purification of cohesin holocomplex and loader, related to Figure 3), and we measured the ATPase rate of cohesin in the presence of cohesin, the loader DNA, and ATP, as previously described.[37] Cohesin was preincubated without or with CIP3, and the accumulation of free Pi was measured over 30 min. In the absence of CIP3, Pi accumulation was constant over time, indicating continuous ATP hydrolysis.
Cohesin and the Scc2-Scc4 loader were expressed in S. cerevisiae as described in[37] with the following modifications: Cells were resuspended in buffer A (50 mM Hepes-NaOH pH 7.5, 300 mM NaCl, 2 mM MgCl2, 20% (vol/vol) glycerol, 0.5 mM Tris(2-carboxyethyl)phosphine hydrochloride (TCEP), 0.5 mM Pefabloc (Sigma-Aldrich), and a protease inhibitor cocktail (Sigma-Aldrich) and lysed by seven continuous passes in EmulsiFlexby-C3 (Avastin) at 4°C. The lysate was clarified, and purifications were continuous, as described in.[37]
ATPase assay has been done with the piColorLock kit (Expedeon) according to the manufacturer manual. […] The reaction was incubated at 30°C for 20 minutes and the amount of free was measured for 30 min minutes by absorbance in 650 nm every 5 min […].

CIP3-TAT [3] = target: T1, CIP3-TAT; experiment: field-effect biosensing (FEB Agile R100); 500 nM peptide immobilised on a graphene sensor chip; purified Smc3 head domain as analyte, incubated with ATP (10 mM) before the measurement; conditions: both partners purified
CIP3-TAT [4] = target: T1, CIP3-TAT; experiment: field-effect biosensing (FEB Agile R100); 500 nM peptide immobilised on a graphene sensor chip; purified Smc3 head domain as analyte in rising concentrations; PBS baseline; without ATP; Kd by Hill fit or from kon and koff at a single concentration; conditions: both partners purified

| Molecule | growth of cells overexpressing the peptide [2] | growth rate vs control, multiple linear regression coefficient B [2] | biological effect, preliminary analysis (cohesin in yeast cells) | further results |
| --- | --- | --- | --- | --- |
| FITC-SGYGRKKRRQRRR-GGGLNPYWMETFT [ContP, 26-amino acid control peptide fused to the TAT and a fluorescein isothiocyanate (FITC) fluorophore] | – | – | – | peptide entry into yeast cells [1]: emission from cells incubated with the ContP peptide |
| MIIGSNGSGKSN [CIP2, expressed from pME2] | no significant decrease in growth rate | −0.290 | do not have a detectable biological effect | – |
| MKRFKDMEYLSGGEKT [CIP3, expressed from pME3] | weak growth delay; also recorded: significant decrease in growth rate | −0.727 | – | growth inhibition compared to previous (non-T2A) experiment (yeast cells): the inhibition fold was not improved; Pi accumulation (ATPase activity) after 5 min (cohesin holocomplex): Pi accumulation dropped sharply, indicating that ATPase activity was inhibited |
| MKQNEQLHVEQLSGGQKTV [CIP1, expressed from pME4] | no significant decrease in growth rate | 0.015 | do not have a detectable biological effect | – |
| Smc3 head domain (domain or fragment, S. cerevisiae, Smc3, S. cerevisiae, N-terminal part of the head domain, amino acids 2-204; 13 amino acids linker in place of the coiled coil and hinge; Smc3, S. cerevisiae, C-terminal part of the head domain, amino acids 1001-1230; also called Smc3hd; source: E. coli BL21, purified (Ni-NTA, twice)) YIKRVIIKGFKTYRNETIIDNFSPHQNVIIGSNGSGKSNFFAAIRFVLSDDYSNLKREERQGLIHQGSGGSVMSASVEIVFHDPDHSMILPSGVLSRGDDEVTIRRTVGLKKDDYQLNDRNVTKGDIVRMLETAGFSMNNPYNIVPQGKIVALTNAKDKERLQLLEDVVGAKSFEVKLKASLKKMEETEQKKIQINKEMGELNESSKHPTSLVPRGNFKKFNERRKDLAERASELDESKDSIQDLIVKLKQQKVNAVDSTFQKVSENFEAVFERLVPRGTAKLIIHRKNDNANDHDESIDVDMDAESNESQNGKDSEIMYTGVSISVSFNSKQNEQLHVEQLSGGQKTVCAIALILAIQMVDPASFYLFDEIDAALDKQYRTAVATLLKELSKNAQFICTTFRTDMLQVADKFFRVKYENKISTVIEVNREEAIGFIRGSNKFAEV | – | – | – | Kd (CIP3-TAT [3]): 544.2 ± 0.06 nM; Kd (CIP3-TAT [4]): 53.9 nM and 56 nM |
